According to US20240059703A1 (AMGEN INC., priority 2021, published 2024):
Like-named read-outs stand apart in the source and are kept apart here.

Tests used:
[1] = molecular target: KRAS G12C (Homo sapiens (Human), UniProt P01116, C118A/G12C); experiment: 2 h coupled exchange assay; assay type: biochemical
Description: The term “2 h coupled exchange assay” or “20 h coupled exchange assay” as used herein refers to the assay described in the Section entitled “BIOLOGICAL EVALUATION.”

[2] = tested on: MIA PaCa-2 (human pancreatic carcinoma) cells; experiment: Cell Viability Assay (CellTiter-Glo), MIA PaCa-2; assay type: cell-based
Description: Serially-diluted compound or DMSO was added to the cells, and plates were incubated at 37° C., 5% CO2 for 72 h. Cell viability was measured using a CellTiter-Glo® Luminescent Cell Viability Assay kit (Promega) according to the manufacturer's protocol. The luminescence signal of treated samples was normalized to DMSO control, and data were analyzed using a 4-parameter logistic model to calculate IC50 values.

[3] = tested on: A549 (human lung carcinoma) cells; experiment: Cell Viability Assay (CellTiter-Glo), A549; assay type: cell-based
How it was run: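 Seeding at 1.67E+04 cells/mL is followed by overnight attachment at 37° C., 5% CO2. Serially diluted compound is added for 72 h. Viability is read by CellTiter-Glo luminescence, scaled to DMSO and fitted (4-parameter logistic) to give IC50.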

[4] = Avg 2 h Coupled exchange IC50, 2 h compound pre-incubation, SOS-mediated nucleotide exchange
[5] = Avg 2 h Coupled exchange IC50, 2 h compound pre-incubation

KRAS G12C, sequence (P01116 other isoform, or with tags, fused parts or gaps G12C/C118A): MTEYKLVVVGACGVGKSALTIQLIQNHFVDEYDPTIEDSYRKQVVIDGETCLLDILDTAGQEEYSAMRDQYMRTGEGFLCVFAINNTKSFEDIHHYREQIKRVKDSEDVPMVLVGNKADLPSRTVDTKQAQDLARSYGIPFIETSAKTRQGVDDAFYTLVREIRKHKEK

Compound: C=CC(=O)N1CC2(CCN(c3nc4c(c(-c5c(C)ccc6[nH]ncc56)c3C#N)CC(C(C)C)C4)C2)C1 (racemic) [Example 24-1, (6R)-4-(5-methyl-1H-indazol-4-yl)-6-(2-propanyl)-2-(2-(2-propenoyl)-2,6-diazaspiro[3.4]octan-6-yl)-6,7-dihydro-5H-cyclopenta[b]pyridine-3-carbonitrile and (6S) 4-(5-methyl-1H-indazol-4-yl)-6-(2-propanyl)-2-(2-(2-propenoyl)-2,6-diazaspiro[3.4]octan-6-yl)-6,7-dihydro-5H-cyclopenta[b]pyridine-3-carbonitrile]
- IC50 ([1]; read-out: Avg 2 h Coupled exchange IC50, 2 h compound pre-incubation): 62 nM
- IC50 ([2]; 72 h): 1120 nM
- IC50 ([3]; 72 h): > 5000 nM

Compound: C=CC(=O)N1CC2(CCN(c3nc4c(c(-c5cc(O)cc(Cl)c5C)c3C)COC(C)(C)C4)C2)C1 [Example 12-2, 1-(6-(4-(3-chloro-5-hydroxy-2-methylphenyl)-3,7,7-trimethyl-7,8-dihydro-5H-pyrano[4,3-b]pyridin-2-yl)-2,6-diazaspiro[3.4]octan-2-yl)prop-2-en-1-one]
- IC50 [1, 4]: 41 nM
- IC50 ([2]; Homo sapiens, MIA PaCa-2, 72 h): 38 nM
- IC50 ([3]; Homo sapiens, A549, 72 h): > 5000 nM

Compound: C=CC(=O)N1CC2(CCN(c3nc4c(c(-c5cccc6cn[nH]c56)c3C#N)C[C@H]3C[C@@H]4C3(C)C)C2)C1 [Example 14-25, (1R,9R)-6-(1H-indazol-7-yl)-10,10-dimethyl-4-(2-(2-propenoyl)-2,6-diazaspiro[3.4]octan-6-yl)-3-azatricyclo[7.1.1.0^2,7]undeca-2,4,6-triene-5-carbonitrile]
- IC50 [1, 5]: 110 nM
- IC50 ([2]; Homo sapiens, MIA PaCa-2, 72 h): 669 nM
- IC50 ([3]; Homo sapiens, A549, 72 h): > 5000 nM

Compound: C=CC(=O)N1CC2(CCN(c3nc4c(c(-c5cccc6cc(O)ccc56)c3C)CCC(C)(C)C4)C2)C1 (single isomer, unassigned) [Example 2-15, (P)-1-(6-(4-(6-hydroxy-1-naphthalenyl)-3,7,7-trimethyl-5,6,7,8-tetrahydro-2-quinolinyl)-2,6-diazaspiro[3.4]octan-2-yl)-2-propen-1-one]
- IC50 [1, 4]: 66 nM
- IC50 ([2]; Homo sapiens, MIA PaCa-2, 72 h): 106 nM
- IC50 ([3]; Homo sapiens, A549, 72 h): > 5000 nM

Compound: C=CC(=O)N1CC2(CCN(c3nc4cc(-c5ccnn5C)ccc4c(-c4ccccc4Cl)c3C)C2)C1 [Example 16-1, 1-(6-(4-(2-chlorophenyl)-3-methyl-7-(1-methyl-1H-pyrazol-5-yl)quinolin-2-yl)-2,6-diazaspiro[3.4]octan-2-yl)prop-2-en-1-one]
- IC50 [1, 5]: 280 nM
- IC50 ([2]; Homo sapiens, MIA PaCa-2, 72 h): > 5000 nM
- IC50 ([3]; Homo sapiens, A549, 72 h): > 5000 nM

Compound: C=CC(=O)N1CC2(CCN(c3nc4c(c(-c5ccccc5F)c3C#N)CCN(CCCOC)C4)C2)C1 [Example 21-39, 4-(2-fluorophenyl)-7-(3-methoxypropyl)-2-(2-(2-propenoyl)-2,6-diazaspiro[3.4]octan-6-yl)-5,6,7,8-tetrahydro-1,7-naphthyridine-3-carbonitrile]
- IC50 [1, 5]: 1120 nM
- IC50 ([2]; Homo sapiens, MIA PaCa-2, 72 h): 7180 nM
- IC50 ([3]; Homo sapiens, A549, 72 h): 17600 nM

Compound: C=CC(=O)N1CC2(CCN(c3nc4c(c(-c5c(C)ccc6cnn(C)c56)c3C#N)CCC(C)(C)C4)C2)C1 (single isomer, unassigned) [Example 13-145, 4-(1,6-dimethyl-1H-indazol-7-yl)-7,7-dimethyl-2-(2-(2-propenoyl)-2,6-diazaspiro[3.4]octan-6-yl)-5,6,7,8-tetrahydro-3-quinolinecarbonitrile]
- IC50 [1, 4]: 31 nM
- IC50 ([2]; 72 h): 208 nM
- IC50 ([3]; Homo sapiens, A549, 72 h): > 5000 nM

Compound: C=CC(=O)N1CC2(CCN(c3nc4cc(-c5scnc5C)ccc4c(-c4c(O)cccc4F)c3C#N)C2)C1 [Example 19-3, 4-(2-fluoro-6-hydroxyphenyl)-7-(4-methyl-1,3-thiazol-5-yl)-2-(2-(2-propenoyl)-2,6-diazaspiro[3.4]octan-6-yl)-3-quinolinecarbonitrile]
- IC50 [1, 5]: 58 nM
- IC50 ([2]; Homo sapiens, MIA PaCa-2, 72 h): 717 nM
- IC50 ([3]; Homo sapiens, A549, 72 h): 4180 nM

Compound: C=CC(=O)N1CC2(CCN(c3nc4c(c(-c5cccc(O)c5F)c3C#N)CCC(c3scnc3C)=C4)C2)C1 [Example 23-43, 4-(2-fluoro-3-hydroxyphenyl)-7-(4-methyl-1,3-thiazol-5-yl)-2-(2-(2-propenoyl)-2,6-diazaspiro[3.4]octan-6-yl)-5,6-dihydro-3-quinolinecarbonitrile]
- IC50 [1, 5]: 299 nM
- IC50 ([2]; Homo sapiens, MIA PaCa-2, 72 h): 4560 nM
- IC50 ([3]; Homo sapiens, A549, 72 h): 8380 nM

Compound: C=CC(=O)N1CC2(CCN(c3nc4c(c(-c5cc(O)ccc5C)c3C#N)C[C@H]3C[C@@H]4C3)C2)C1 [Example 13-113, (1S,9S)-6-(5-hydroxy-2-methylphenyl)-4-(2-(2-propenoyl)-2,6-diazaspiro[3.4]octan-6-yl)-3-azatricyclo[7.1.1.0^2,7]undeca-2,4,6-triene-5-carbonitrile]
- IC50 [1, 4]: 71 nM
- IC50 ([2]; Homo sapiens, MIA PaCa-2, 72 h): > 5000 nM
- IC50 ([3]; Homo sapiens, A549, 72 h): > 5000 nM

Compound: C=CC(=O)N1CC2(CCN(c3nc4c(c(-c5c(C)ccc6cnn(C)c56)c3C#N)CC(C)(C)C4)C2)C1 [Example 13-16, 4-(1,6-dimethyl-1H-indazol-7-yl)-6,6-dimethyl-2-(2-(2-propenoyl)-2,6-diazaspiro[3.4]octan-6-yl)-6,7-dihydro-5H-cyclopenta[b]pyridine-3-carbonitrile]
- IC50 [1, 4]: 82 nM
- IC50 ([2]; Homo sapiens, MIA PaCa-2, 72 h): 393 nM
- IC50 ([3]; Homo sapiens, A549, 72 h): > 5000 nM

Compound: C=CC(=O)N1CC2(CCN(c3nc4c(c(-c5cccc(O)c5)c3C#N)CCC(c3scnc3C)=C4)C2)C1 [Example 23-55, 4-(3-hydroxyphenyl)-7-(4-methyl-1,3-thiazol-5-yl)-2-(2-(2-propenoyl)-2,6-diazaspiro[3.4]octan-6-yl)-5,6-dihydro-3-quinolinecarbonitrile]
- IC50 [1, 5]: 120 nM
- IC50 ([2]; Homo sapiens, MIA PaCa-2, 72 h): 2120 nM
- IC50 ([3]; Homo sapiens, A549, 72 h): > 5000 nM

Compound: C=CC(=O)N1CC2(CCN(c3nc4cc(-c5scnc5C)ccc4c(-c4ccccc4C)c3C#N)C2)C1 (single isomer, unassigned) [Example 19-11, (P)-4-(2-methylphenyl)-7-(4-methyl-1,3-thiazol-5-yl)-2-(2-(2-propenoyl)-2,6-diazaspiro[3.4]octan-6-yl)-3-quinolinecarbonitrile]
- IC50 [1, 5]: 68 nM
- IC50 ([2]; Homo sapiens, MIA PaCa-2, 72 h): 1350 nM
- IC50 ([3]; Homo sapiens, A549, 72 h): > 5000 nM

Compound: C=CC(=O)N1CC2(CCN(c3nc4cc(-c5c(C)nn(C)c5C)ccc4c(-c4ccccc4Cl)c3C#N)C2)C1 [Example 14-46, 4-(2-chlorophenyl)-2-(2-(2-propenoyl)-2,6-diazaspiro[3.4]octan-6-yl)-7-(1,3,5-trimethyl-1H-pyrazol-4-yl)-3-quinolinecarbonitrile]
- IC50 [1, 5]: 113 nM
- IC50 ([2]; Homo sapiens, MIA PaCa-2, 72 h): 459 nM
- IC50 ([3]; Homo sapiens, A549, 72 h): 2380 nM

Compound: C=CC(=O)N1CC2(CCN(c3nc4c(c(-c5c(C)cccc5F)c3C#N)CCC(c3scnc3C)=C4)C2)C1 [Example 23-48, 4-(2-fluoro-6-methylphenyl)-7-(4-methyl-1,3-thiazol-5-yl)-2-(2-(2-propenoyl)-2,6-diazaspiro[3.4]octan-6-yl)-5,6-dihydro-3-quinolinecarbonitrile]
- IC50 [1, 5]: 112 nM
- IC50 ([2]; Homo sapiens, MIA PaCa-2, 72 h): 761 nM
- IC50 ([3]; Homo sapiens, A549, 72 h): 3430 nM

Compound: C=CC(=O)N1CC2(CCN(c3nc4c(c(-c5c(C)c(Cl)cc6cnn(C)c56)c3C)CCN(C(C)C)C4)C2)C1 [Example 12-22, 1-(6-(4-(5-chloro-1,6-dimethyl-1H-indazol-7-yl)-3-methyl-7-(2-propanyl)-5,6,7,8-tetrahydro-1,7-naphthyridin-2-yl)-2,6-diazaspiro[3.4]octan-2-yl)-2-propen-1-one]
- IC50 [1, 4]: 37 nM
- IC50 ([2]; Homo sapiens, MIA PaCa-2, 72 h): 44 nM
- IC50 ([3]; Homo sapiens, A549, 72 h): > 5000 nM

Compound: C=CC(=O)N1CC2(CCN(c3nc4cc(OC(C)C)ccc4c(-c4ccccc4Cl)c3C#N)C2)C1 [Example 20-11, 4-(2-chlorophenyl)-7-(2-propanyloxy)-2-(2-(2-propenoyl)-2,6-diazaspiro[3.4]octan-6-yl)-3-quinolinecarbonitrile]
- IC50 [1, 5]: 834 nM
- IC50 ([2]; Homo sapiens, MIA PaCa-2, 72 h): 3100 nM
- IC50 ([3]; Homo sapiens, A549, 72 h): 8810 nM
